The values that follow come from patent EP0311473A1, “Fluorinated derivate of amino acids, useful as tensioactive or cotensioactive agents, and preparations for biomedical use containing these derivatives” (AP[…] […] TE[…] ATTA, priority 1987, dated 1989).

Series [1] in a line: Surface tension of aqueous solutions of the fluorinated derivatives. The series is classed as physicochemical. As to conditions: solution in water, 20°C. Here is the method:
(§1) Pour illustrer le caractère fortement tensioactif des dérivés fluorés de l'invention, on a effectué des mesures à 20°C de la tension superficielle de solutions dans l'eau de ces dérivés, ainsi que de la tension interfaciale entre ces solutions et un composé perfluoré constitué par la perfluorodécaline.
(§2) On précise que dans les conditions de ces mesures: • - la tension superficielle de l'eau à 20°C est de 73,0± 0,2mN.m-^1, et • - la tension interfaciale entre l'eau et la perfluorodécaline à 20°C est de 56,0 ± 0,2 mN.m-^1.

A short description of series [2]: Interfacial tension between aqueous solutions and perfluorodecalin. It counts as physicochemical. Particulars: solution in water vs perfluorodécaline, 20°C. Here is the method: as §1, §2
The subject of series [3] is cultures cellulaires lymphoblastoïdes de la souche Namalva. Put plainly: Biocompatibility on lymphoblastoid cell cultures (growth, multiplication, subculturing). It counts as cell-based. An excerpt: Pour tester la biocompatibilité des dérivés de l'invention, on a vérifié que ces dérivés n'avaient pas d'effet sur la croissance, la multiplication et le repiquage de cultures cellulaires lymphoblastoïdes de la souche Namalva.

The test system of another series is globules rouges humains. Put plainly: Haemolysis test on human red blood cells. The series is classed as cell-based.
The next series relates to souris. The experiment in a line: Acute toxicity after intravenous administration to mice. It counts as in vivo. How it is done: Enfin, on a vérifié que les dérivés de l'invention ne présentaient pas de toxicité aigüe. Ainsi, l'administration intraveineuse à des souris, de 20 ml/kg des solutions à : • - 100 mg/I de (F-butyl-2')éthylbétaïne (ex. 4), • - 100 mg/l de (F-hexyl-2')éthylbétaïne (ex. 5), • - 100 mg/I de (F-octyl-2')éthylbétaïne (ex. 6), et • - 500 mg/I de (F-octyl-3"propylcarbamoyl)-4'butylbétaïne (ex. 14), dans de l'eau à 9 pour mille de NaCl, a été bien tolérée.

Setting [4] is: solution 1 g/l in water with 9 per mille NaCl.
Where [5] appears, read: solution 5 g/l in water with 9 per mille NaCl.
The mark [6] stands for this setting: 20 ml/kg of a 100 mg/l solution in water with 9 per mille NaCl.
[7] abbreviates: solution 500 mg/l in water with 9 per mille NaCl.

Turning to `C[C@H](CCC(=O)NC(CCC(F)(F)C(F)(F)C(F)(F)C(F)(F)C(F)(F)C(F)(F)F)C(=O)O)[C@H]1CC[C@H]2[C@@H]3[C@H](O)C[C@@H]4C[C@H](O)CC[C@]4(C)[C@H]3C[C@H](O)[C@]12C` (some centres unmarked), the Tension superficielle in series [1] (concentration 1 g/l) is given as 28,5 mN.m^-1. Moreover, the “Tension interfaciale/ F-décaline” value in series [2] (concentration 1 g/l) is on record as 4,7 mN.m^-1.

For the compound `C[N+](C)(C)C(CCC(F)(F)C(F)(F)C(F)(F)C(F)(F)F)C(=O)[O-]` (centres unmarked) [(F-butyl-2')éthyl bétaïne de l'Ex. 4, F-(butyl-2')éthyl bétaïne], the Tension superficielle is given as 68,4 mN.m^-1 in series [1] (concentration 0,1 g/l) and 49,3 mN.m^-1 in series [1] (concentration 1 g/l). Besides, the “croissance, multiplication et repiquage des cultures” value in series [3] (setting [4]) was “ne perturbent pas la croissance, la multiplication et le repiquage de ces cultures”. Also, the “Tension interfaciale/ F-décaline” value is 48,0 mN.m^-1 in series [2] (concentration 0,1 g/l) and 34,5 mN.m^-1 in series [2] (concentration 1 g/l). Further, the “hémolyse des globules rouges humains” value with globules rouges humains (setting [5]) was “ne provoquent pas l'hémolyse”. Also, in the series with souris (setting [6]), the “toxicité aigüe (tolérance)” value was “bien tolérée”.

Turning to `C[N+](C)(C)C(CCC(F)(F)C(F)(F)C(F)(F)C(F)(F)C(F)(F)C(F)(F)F)C(=O)[O-]` (centres unmarked) [(F-hexyl-2')éthyl bétaïne de l'Ex. 5, (F-hexyl-2')éthyl bétaïne], the Tension superficielle in series [1] (concentration 0,1 g/l) was 39,3 mN.m^-1; in series [1] (concentration 1 g/l) it was 20,0 mN.m^-1. For the same compound, the “croissance, multiplication et repiquage des cultures” value in series [3] (setting [4]) was “ne perturbent pas la croissance, la multiplication et le repiquage de ces cultures”. Moreover, the “Tension interfaciale/ F-décaline” value is recorded as 22,4 mN.m^-1 in series [2] (concentration 0,1 g/l) and 3,1 mN.m^-1 in series [2] (concentration 1 g/l). In the series on globules rouges humains (setting [5]), the “hémolyse des globules rouges humains” value is “ne provoquent pas l'hémolyse”. In addition, in the series with souris (setting [6]), the “toxicité aigüe (tolérance)” value is reported as “bien tolérée”.

Regarding `C[N+](C)(C)C(CCC(F)(F)C(F)(F)C(F)(F)C(F)(F)C(F)(F)C(F)(F)C(F)(F)C(F)(F)F)C(=O)[O-]` (centres unmarked) [(F-octyl-2')éthyl bétaïne de l'Ex. 6, (F-octyl-2')éthyl bétaïne], the Tension superficielle is recorded as 25,6 mN.m^-1 in series [1] (concentration 0,01 g/l), 19,9 mN.m^-1 in series [1] (concentration 0,1 g/l) and 19,1 mN.m^-1 in series [1] (concentration 1 g/l). Further, the “croissance, multiplication et repiquage des cultures” value in series [3] (setting [4]) is given as “ne perturbent pas la croissance, la multiplication et le repiquage de ces cultures”. Besides, the “Tension interfaciale/ F-décaline” value in series [2] (concentration 0,01 g/l) is on record as 7,5 mN.m^-1; in series [2] (concentration 0,1 g/l), 3,4 mN.m^-1; in series [2] (concentration 1 g/l) it was 2,8 mN.m^-1. In the series on globules rouges humains (setting [4]), the “hémolyse des globules rouges humains” value was “ne provoquent pas l'hémolyse”. The “toxicité aigüe (tolérance)” value in the series on souris (setting [6]) is given as “bien tolérée”.

Turning to `O=C(O)CNC(=O)CCC(F)(F)C(F)(F)C(F)(F)C(F)(F)C(F)(F)C(F)(F)C(F)(F)C(F)(F)F` [(F-octyl-3' propylcarbamoyl) éthanoate de sodium], the Tension superficielle is on record as 43,2 mN.m^-1 in series [1] (concentration 0,01 g/l), 38,8 mN.m^-1 in series [1] (concentration 0,1 g/l) and 21,6 mN.m^-1 in series [1] (concentration 1 g/l). Moreover, the entries for the “Tension interfaciale/ F-décaline” value in series [2] (concentration 0,01 g/l), in series [2] (concentration 0,1 g/l) and in series [2] (concentration 1 g/l) were 41,3 mN.m^-1, 25,2 mN.m^-1 and 7,1 mN.m^-1, respectively.

In the case of `C[N+](C)(C)C(CCCCNC(=O)CCC(F)(F)C(F)(F)C(F)(F)C(F)(F)C(F)(F)C(F)(F)C(F)(F)C(F)(F)F)C(=O)[O-]` (centres unmarked) [(triméthylammonio)-2 [(F-octyl)-3' propanoylamino] -6 hexanoate], the figures for the Tension superficielle in series [1] (concentration 0,01 g/l) and in series [1] (concentration 0,1 g/l) were 22,8 mN.m^-1 and 19,7 mN.m^-1, respectively. The “croissance, multiplication et repiquage des cultures” value in series [3] (setting [7]) is “ne perturbent pas la croissance, la multiplication et le repiquage de ces cultures”. Moreover, the figures for the “Tension interfaciale/ F-décaline” value in series [2] (concentration 0,01 g/l) and in series [2] (concentration 0,1 g/l) were 5,2 mN.m^-1 and 3,6 mN.m^-1, respectively. Besides, the “hémolyse des globules rouges humains” value in the series on globules rouges humains (setting [7]) is reported as “ne provoquent pas l'hémolyse”. Besides, the “toxicité aigüe (tolérance)” value with souris (20 ml/kg of a 500 mg/l solution in water with 9 per mille NaCl) was “bien tolérée”.
